Structures can show the parent of a compound that is named as a salt. Where two headings read alike, the source gives them in different places.
Key:
Type in all cases: cell-based
HCT116 cells = assay: Anti-proliferation assay (Alamar Blue metabolism), HCT116; settings: Homo sapiens, read-out: Percent inhibition of Alamar Blue Metabolism
Description: (§1) Itraconazole was obtained from […].). Stock solutions (1000×) of each compound were prepared in DMSO and stored at -20° C. Master stock plates of 2-fold serial dilutions of individual compounds were prepared in 384-well plates. Combination matrices of test compounds were generated from these master stock plates by dilution into growth media described above. […] The combination matrices were used immediately and discarded. The anti-proliferation assays were performed in 384 well plates. […] Cells were diluted in culture media such that 3,000 SKMEL cells, or 1,500 cells for all the other cell lines, were delivered in 35 μl of media into each assay well. […] Then, 4.5 μl of 10× stock solutions from the combination matrices were added to 40 μl of culture media. […] Quantification, using the LJL Analyst AD reader (LJL Biosystems), was taken in the middle of the well with high attenuation, a 100 msec read time, an excitation filter at 530 nm, and an emission filter at 575 nm. For some experiments, quantification was performed using a Wallac Victor^2 reader. Measurements were taken at the top of the well with stabilized energy lamp control; a 100 msec read time, an excitation filter at 530 nm, and an emission filter at 590 nm.

DU145 cells = assay: Anti-proliferation assay (Alamar Blue metabolism), DU145; settings: Homo sapiens, DU-145; read-out: Percent inhibition of Alamar Blue Metabolism
Description: as §1

A549 cells = assay: Anti-proliferation assay (Alamar Blue metabolism), A549; settings: Homo sapiens, read-out: Percent inhibition of Alamar Blue Metabolism
Description: as §1

SKMEL-28 cells = assay: Anti-proliferation assay (Alamar Blue metabolism), SKMEL-28; settings: Homo sapiens, SK-MEL-28; read-out: Percent inhibition of Alamar Blue Metabolism
Description: as §1

## COC(=O)C1=C(C)NC(C)=C(C(=O)OCCN(C)Cc2ccccc2)C1c1cccc([N+](=O)[O-])c1 (centres unmarked) [Nicardipine, 2-(benzyl-methylamino)ethyl methyl 1,4-dihydro-2,6-dimethyl-4-(m-nitrophenyl)-3,5-pyridinedicarboxylate monohydrochloride]
HCT116 cells; HCT-116, itraconazole 0 μM, nicardipine 0.3 μM
  inhibition at 0.3 µM: 2.6%
HCT116 cells; HCT-116, itraconazole 0 μM, nicardipine 0.61 μM
  inhibition at 0.61 µM: 1.4%
HCT116 cells; HCT-116, itraconazole 0 μM, nicardipine 1.2 μM
  inhibition at 1.2 µM: 2.5%
HCT116 cells; HCT-116, itraconazole 0 μM, nicardipine 2.4 μM
  inhibition at 2.4 µM: 5.2%
HCT116 cells; HCT-116, itraconazole 0 μM, nicardipine 4.8 μM
  inhibition at 4.8 µM: 7.5%
HCT116 cells; HCT-116, itraconazole 0 μM, nicardipine 9.7 μM
  inhibition at 9.7 µM: 9.7%
HCT116 cells; HCT-116, itraconazole 0 μM, nicardipine 19 μM
  inhibition at 19 µM: 25.2%
HCT116 cells; HCT-116, itraconazole 0 μM, nicardipine 39 μM
  inhibition at 39 µM: 81.7%

## CC(C)COCC(CN(Cc1ccccc1)c1ccccc1)N1CCCC1 (stereo not drawn) [Bepridil, beta-((2-methylpropoxy)methyl)-N-phenyl-N-(phenylmethyl)-1-pyrrolidineethanamine]
HCT116 cells; HCT-116, itraconazole 0 μM, bepridil 1.5 μM
  inhibition at 1.5 µM: 5.1%
HCT116 cells; HCT-116, itraconazole 0 μM, bepridil 3 μM
  inhibition at 3 µM: 17.4%
HCT116 cells; HCT-116, itraconazole 0 μM, bepridil 6.1 μM
  inhibition at 6.1 µM: 54%
HCT116 cells; HCT-116, itraconazole 0 μM, bepridil 12 μM
  inhibition at 12 µM: 33.2%
HCT116 cells; HCT-116, itraconazole 0 μM, bepridil 24 μM
  inhibition at 24 µM: 79%
HCT116 cells; HCT-116, itraconazole 0 μM, bepridil 48 μM
  inhibition at 48 µM: 96.4%

## CCC(C)n1ncn(-c2ccc(N3CCN(c4ccc(OCC5COC(Cn6cncn6)(c6ccc(Cl)cc6Cl)O5)cc4)CC3)cc2)c1=O (centres unmarked) [Itraconazole, itraconazole]
DU145 cells
  inhibition at 0.44 µM: -1.6%
  inhibition at 0.87 µM: 4.9%
  inhibition at 1.7 µM: -4.2%
  inhibition at 3.5 µM: -10.1%
  inhibition at 7 µM: -13%
  inhibition at 14 µM: -4.3%
  inhibition at 28 µM: -4.6%
HCT116 cells; HCT-116, amiodarone 0 μM, itraconazole 0.44 μM
  inhibition at 0.44 µM: -2.8%
HCT116 cells; HCT-116, amiodarone 0 μM, itraconazole 0.87 μM
  inhibition at 0.87 µM: 1.9%
HCT116 cells; HCT-116, amiodarone 0 μM, itraconazole 1.7 μM
  inhibition at 1.7 µM: 8.5%
HCT116 cells; HCT-116, amiodarone 0 μM, itraconazole 3.5 μM
  inhibition at 3.5 µM: 17.5%
HCT116 cells; HCT-116, amiodarone 0 μM, itraconazole 7 μM
  inhibition at 7 µM: 20.4%
HCT116 cells; HCT-116, amiodarone 0 μM, itraconazole 14 μM
  inhibition at 14 µM: 19.1%
HCT116 cells; HCT-116, amiodarone 0 μM, itraconazole 28 μM
  inhibition at 28 µM: 16%
HCT116 cells; HCT-116, amiodarone 0 μM, itraconazole […]
  inhibition at […]: -0.7%
HCT116 cells; HCT-116, itraconazole 0.44 μM, bepridil 0 μM
  inhibition at 0.44 µM: -1.4%
HCT116 cells; HCT-116, itraconazole 0.44 μM, nicardipine 0 μM
  inhibition at 0.44 µM: -0.5%
HCT116 cells; HCT-116, itraconazole 0.87 μM, bepridil 0 μM
  inhibition at 0.87 µM: 13.3%
HCT116 cells; HCT-116, itraconazole 0.87 μM, nicardipine 0 μM
  inhibition at 0.87 µM: 12.3%
HCT116 cells; HCT-116, itraconazole 1.7 μM, bepridil 0 μM
  inhibition at 1.7 µM: 26.4%
HCT116 cells; HCT-116, itraconazole 1.7 μM, nicardipine 0 μM
  inhibition at 1.7 µM: 15.4%
HCT116 cells; HCT-116, itraconazole 3.5 μM, bepridil 0 μM
  inhibition at 3.5 µM: 30.3%
HCT116 cells; HCT-116, itraconazole 3.5 μM, nicardipine 0 μM
  inhibition at 3.5 µM: 20.1%
HCT116 cells; HCT-116, itraconazole 7 μM, bepridil 0 μM
  inhibition at 7 µM: 33.1%
HCT116 cells; HCT-116, itraconazole 7 μM, nicardipine 0 μM
  inhibition at 7 µM: 32.7%
HCT116 cells; HCT-116, itraconazole 14 μM, bepridil 0 μM
  inhibition at 14 µM: 17.8%
HCT116 cells; HCT-116, itraconazole 14 μM, nicardipine 0 μM
  inhibition at 14 µM: 19.8%
HCT116 cells; HCT-116, itraconazole 28 μM, bepridil 0 μM
  inhibition at 28 µM: 17.2%
HCT116 cells; HCT-116, itraconazole 28 μM, nicardipine 0 μM
  inhibition at 28 µM: 22.4%
HCT116 cells; HCT-116, itraconazole […], bepridil 0 μM
  inhibition at […]: 5.8%
HCT116 cells; HCT-116, itraconazole […], nicardipine 0 μM
  inhibition at […]: 3%
A549 cells
  inhibition at 0.44 µM: 3.7%
  inhibition at 0.87 µM: 11.5%
  inhibition at 1.7 µM: 2.8%
  inhibition at 3.5 µM: 8%
  inhibition at 7 µM: 6.3%
  inhibition at 14 µM: 7.4%
  inhibition at 28 µM: 9.7%
SKMEL-28 cells
  inhibition at 0.44 µM: 1.5%
  inhibition at 0.87 µM: 4.4%
  inhibition at 1.7 µM: 6.6%
  inhibition at 3.5 µM: 10.4%
  inhibition at 7 µM: 12.6%
  inhibition at 14 µM: 14%
  inhibition at 28 µM: 15%

From US20070179152A1, “Combination therapy for the treatment of neoplasms” (priority 2003, published 2007)
